Earlier results, collected in US20220323353A1, “BIODEGRADABLE DRUG-ELUTING EMBOLIC PARTICLES FOR DELIVERY OF THERAPEUTIC AGENTS” (Becton, Dickinson and Company, priority 2019, published 2022).

Tested on: hepatocellular carcinoma
Details: administrated via the hepatic artery

COc1cccc2c1C(=O)c1c(O)c3c(c(O)c1C2=O)C[C@@](O)(C(=O)CO)C[C@@H]3O[C@H]1C[C@H](N)[C@H](O)[C@H](C)O1 [doxorubicin]
antitumor activity in hepatocellular carcinoma patients: antitumor effects and partial response
